Measurements as given in ChEMBL document CHEMBL5113519, “Discovery of Novel Imidazo[4,5-c]quinoline Derivatives to Treat Inflammatory Bowel Disease (IBD) by Inhibiting Multiple Proinflammatory Signaling Pathways and Restoring Intestinal Homeostasis” (J Med Chem, 2022).
The source made the active and inactive calls. The calls are words filed in the database; no cut-off is given here.

Experiments:
THP1-Dual [1] = experiment: Anti-inflammatory activity against LPS-stimulated human THP1-Dual cells assessed as inhibition of IL-6 secretion incubated for 6 hrs followed by LPS stimulation by Western blot analysis; assay type: functional, cell-based; settings: dose 0.33-3 µM, DDE = dose-dependent effect
THP1-Dual [2] = experiment: Anti-inflammatory activity against LPS-stimulated human THP1-Dual cells assessed as reduction in phosphorylation of NF-kappa B level incubated for 6 hrs by Western blot analysis; assay type: functional, cell-based; settings: dose 0.33-3 µM, DDE = dose-dependent effect
THP1-Dual [3] = experiment: Anti-inflammatory activity against LPS-stimulated human THP1-Dual cells assessed as reduction in STAT1 phosphorylation level incubated for 6 hrs by Western blot analysis; assay type: functional, cell-based; settings: dose 0.33-3 µM, DDE = dose-dependent effect
[4] = Toxicity in mouse assessed as effect on white blood cell number at 50 mg/kg, IG measured upto 2 weeks; assay type: organism-based; settings: in vivo, po, 336 h
Mus musculus [5] = experiment: Anti-inflammatory activity in TNBS induced IBD BALB/c mouse model assessed as reduction in stool softness by measuring disease activity index score at 1 to 5 mg/kg via oral gavage administered daily for 12 days; assay type: functional, organism-based; settings: dose 1-5 mg/kg, time 12.0 day
Mus musculus [6] = experiment: Anti-inflammatory bowel disease activity in DSS-induced acute enteritis mouse model assessed as decrese in bacteroides abundance at 3 mg/kg; assay type: functional, organism-based
[7] = Cytotoxicity against human GM00637 cells assessed as inhibition of cell growth measured after 24 hrs by CCK-8 method; assay type: toxicity, cell-based
[8] = Toxicity in mouse assessed as abnormal change in lung at 20 to 50 mg/kg, IG measured upto 2 weeks; assay type: organism-based; settings: in vivo, po, 336 h, dose 20-50 mg/kg
THP1-Dual [9] = experiment: Downregulation of unfolded protein response in human THP1-Dual cells at 1 uM incubated for 6 hrs; assay type: functional, cell-based
Mus musculus [10] = experiment: Antiinflammatory activity in DSS-induced acute colitis C57BL/6 mouse model assessed as reduction in intestinal edema in colon by measuring histopathological score at 1 to 3 mg/kg, po by H and E staining based analysis; assay type: functional, organism-based; settings: dose 1-3 mg/kg
THP1-Dual [11] = experiment: Anti-inflammatory activity against LPS-stimulated human THP1-Dual cells assessed as inhibition of IL-8 secretion incubated for 6 hrs followed by LPS stimulation by Western blot analysis; assay type: functional, cell-based; settings: dose 0.33-3 µM, DDE = dose-dependent effect
THP1-Dual [12] = experiment: Downregulation of TNF alpha in human THP1-Dual cells at 1 uM incubated for 6 hrs; assay type: functional, cell-based
THP1-Dual [13] = experiment: Inhibition of LPS induced IL12b expression in human THP1-Dual cells at 1 uM incubated for 6 hrs; assay type: functional, cell-based
THP1-Dual [14] = experiment: Inhibition of LPS induced TNF alpha expression in human THP1-Dual cells at 1 uM incubated for 6 hrs; assay type: functional, cell-based
[15] = Toxicity in mouse assessed as drug tolerability at 20 to 50 mg/kg, IG measured upto 2 weeks; assay type: organism-based; settings: in vivo, po, 336 h, dose 20-50 mg/kg
Mus musculus [16] = experiment: Antiinflammatory activity in DSS-induced acute colitis C57BL/6 mouse model assessed as reduction in inflammatory cell infiltration in colon by measuring histopathological score at 1 to 3 mg/kg, po by H and E staining based analysis; assay type: functional, organism-based; settings: dose 1-3 mg/kg
Mus musculus [17] = experiment: Anti-inflammatory activity in TNBS induced IBD BALB/c mouse model assessed as reduction in weight by measuring disease activity index score at 1 to 5 mg/kg via oral gavage administered daily for 12 days measured daily; assay type: functional, organism-based; settings: dose 1-5 mg/kg, time 12.0 day
[18] = target: T1, Tyrosine-protein kinase JAK3 (Homo sapiens, UniProt P52333)
T1 sequence (P52333 whole entry): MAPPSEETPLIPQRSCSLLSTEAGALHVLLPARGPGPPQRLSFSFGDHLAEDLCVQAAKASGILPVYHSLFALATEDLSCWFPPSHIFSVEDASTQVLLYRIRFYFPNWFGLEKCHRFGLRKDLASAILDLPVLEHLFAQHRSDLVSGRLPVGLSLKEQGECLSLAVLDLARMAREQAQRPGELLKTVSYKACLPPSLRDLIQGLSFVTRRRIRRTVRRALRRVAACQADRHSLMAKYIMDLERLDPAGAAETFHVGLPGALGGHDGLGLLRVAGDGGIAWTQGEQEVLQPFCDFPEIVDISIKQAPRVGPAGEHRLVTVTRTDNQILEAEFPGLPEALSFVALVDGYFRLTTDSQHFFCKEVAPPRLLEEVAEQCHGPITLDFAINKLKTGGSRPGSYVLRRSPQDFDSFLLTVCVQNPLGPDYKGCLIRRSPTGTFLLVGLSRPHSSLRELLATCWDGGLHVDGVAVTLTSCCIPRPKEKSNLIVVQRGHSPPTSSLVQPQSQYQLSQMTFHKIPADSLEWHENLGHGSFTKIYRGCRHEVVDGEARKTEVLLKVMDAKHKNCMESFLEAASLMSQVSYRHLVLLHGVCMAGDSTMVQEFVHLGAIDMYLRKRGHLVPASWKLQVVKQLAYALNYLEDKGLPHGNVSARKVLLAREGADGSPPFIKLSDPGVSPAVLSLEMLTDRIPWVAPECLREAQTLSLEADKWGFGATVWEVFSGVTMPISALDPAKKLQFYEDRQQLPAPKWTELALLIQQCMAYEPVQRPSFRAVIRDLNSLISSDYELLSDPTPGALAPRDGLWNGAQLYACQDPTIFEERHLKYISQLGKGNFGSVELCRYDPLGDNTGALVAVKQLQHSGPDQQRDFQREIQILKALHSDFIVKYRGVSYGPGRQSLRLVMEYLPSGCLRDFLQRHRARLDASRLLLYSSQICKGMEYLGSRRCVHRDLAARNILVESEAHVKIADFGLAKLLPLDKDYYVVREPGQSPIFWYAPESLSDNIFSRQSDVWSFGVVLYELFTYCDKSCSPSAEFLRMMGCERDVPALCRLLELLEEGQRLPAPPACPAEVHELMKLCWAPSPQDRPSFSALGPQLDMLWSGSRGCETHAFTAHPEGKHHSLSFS
Description: Inhibition of JAK3 (unknown origin) using Kinase/Tyr 6 peptide as substrate incubated for 1 hrs in presence of ATP by fluorescence microplate reader analysis

Mus musculus [19] = experiment: Antiinflammatory activity in DSS-induced acute colitis C57BL/6 mouse model assessed as reduction stool softness by measuring DAI score at 1 to 3 mg/kg, po administered daily and measured upto 11 days; assay type: functional, organism-based; settings: dose 1-3 mg/kg, time <= 11.0 day
Mus musculus [20] = experiment: Anti-inflammatory activity in TNBS induced IBD BALB/c mouse model assessed as increase in survival probability at 5 mg/kg via oral gavage administered daily for 12 days; assay type: functional, organism-based; settings: time 12.0 day
THP1-Dual [21] = experiment: Downregulation of complement system in human THP1-Dual cells at 1 uM incubated for 6 hrs; assay type: functional, cell-based
[22] = Toxicity in mouse assessed as abnormal change in kidney at 50 mg/kg, IG measured upto 2 weeks; assay type: organism-based; settings: in vivo, po, 336 h
[23] = Toxicity in mouse assessed as abnormal change in liver at 20 to 50 mg/kg, IG measured upto 2 weeks; assay type: organism-based; settings: in vivo, po, 336 h, dose 20-50 mg/kg
Mus musculus [24] = experiment: Anti-inflammatory activity in TNBS induced IBD BALB/c mouse model assessed as reduction in bloody stool by measuring disease activity index score at 1 to 5 mg/kg via oral gavage administered daily for 12 days; assay type: functional, organism-based; settings: dose 1-5 mg/kg, time 12.0 day
Mus musculus [25] = experiment: Anti-inflammatory bowl disease activity in DSS-induced acute enteritis mouse model assessed as increase in norank_f_Muribaculaceae abundance at 3 mg/kg; assay type: functional, organism-based
THP1-Dual [26] = experiment: Anti-inflammatory activity against LPS-stimulated human THP1-Dual cells assessed as inhibition of IL-1 beta secretion incubated for 6 hrs followed by LPS stimulation by Western blot analysis; assay type: functional, cell-based; settings: dose 0.33-3 µM, DDE = dose-dependent effect

Compound: Cc1nc2cnc3ccc(-c4cc(Cl)c(O)c(Cl)c4)cc3c2n1C1CCN(C)CC1
- Activity (THP1-Dual [1]): Dde
- Activity (THP1-Dual [2]): Dde
- Activity (THP1-Dual [3]): Dde
- Activity [4]: Non-Toxic
- Activity (Mus musculus [5]): Active
- Activity (Mus musculus [6]): Active
- IC50 at 24 h [7]: > 10000 nM
- Activity [8]: Non-Toxic
- Activity (THP1-Dual [9]): Active
- Activity (Mus musculus [10]): Active
- Activity (THP1-Dual [11]): Dde
- Activity (THP1-Dual [12]): Active
- inhibition (THP1-Dual [13]): Active
- inhibition (THP1-Dual [14]): Active
- Activity [15]: Non-Toxic
- Activity (Mus musculus [16]): Active
- Activity (Mus musculus [17]): Active
- IC50 [18]: 46.2 nM
- Activity (Mus musculus [19]): Active
- Activity (Mus musculus [20]): Active
- Activity (THP1-Dual [21]): Active
- Activity [22]: Non-Toxic
- Activity [23]: Non-Toxic
- Activity (Mus musculus [24]): Active
- Activity (Mus musculus [25]): Active
- Activity (THP1-Dual [26]): Dde
